# What was measured:
# Test in all cases: Zones of inhibition of impregnated catheter segments, modified Kirby-Bauer method
# MRSE = format: cell-based, Staphylococcus epidermidis
# Procedure: (§1) To evaluate the antimicrobial activity of central venous catheters treated with α-lipoic acid or its combination with gentamicin, segments of 7 French triple lumen polyurethane central venous catheters were impregnated with α-lipoic acid, gentamicin, or the combination of lipoic acid and gentamicin using the same patented method described in Example 1 with 50 mg/ml of each agent (for the final solution volume). After the impregnation process and drying, zones of inhibition were performed on one-centimeter segments according to a modified Kirby-Bauer method against MSSE, MRSE, MRSA, K. pneumoniae, E. coli, P. mirabilis, Pseudomonas aeruginosa, and Candida albicans. Each segment was half embedded in the center of a Muller-Hinton agar plate that had been previously inoculated with an individual organism. Prior to placing the catheter segments in agar, each organism was grown for 18 hours in TSB to a concentration of 0.5 McFarland (10^8 cfu/ml). A cotton swab was placed in the suspension and streaked across the surface of the Muller-Hinton agar plate to cover the entire plate. All plates were placed in a 37° C. incubator for 24 hours. Zones were measured in mm after the incubation period (Table 2).
# (§2) To evaluate the antimicrobial activity of central venous catheters treated with α-lipoic acid or its combination with doxycycline, segments of 7 French triple lumen polyurethane central venous catheters were impregnated with doxycycline or the combinations of α-lipoic acid and doxycycline using the same patented method described in Example 1 (U.S. Pat. No. 6,589,591) with 50 mg/ml of each agent (for the final solution volume). After the impregnation process and drying, zones of inhibition were performed on one-centimeter segments according to a modified Kirby-Bauer method against MSSE, MRSE, MRSA, K. pneumoniae, E. coli, P. aeruginosa, P. mirabilis, and C. albicans as described in Example 2. Zones of inhibition were measured in mm after the incubation period (Table 3).
# (§3) To evaluate the antimicrobial activity of central venous catheters treated with lipoamide or its combination with levofloxacin, segments of 7 French triple lumen polyurethane central venous catheters were impregnated with levofloxacin or the combinations of lipoamide and levofloxacin using the same patented method described in Example 1 (U.S. Pat. No. 6,589,591) with 100 mg/ml (final solution volume) of each agent. After the impregnation process and drying, zones of inhibition were performed on one-centimeter segments according to a modified Kirby-Bauer method against MSSE, MRSE, MRSA, vancomycin-resistant Enterococcus (VRE), K. pneumoniae, E. coli, P. aeruginosa, P. mirabilis, and C. albicans as described in Example 2. Zones of inhibition were measured in mm after the incubation period (Table 4).
# as §3, with “doxycycline,” for “levofloxacin,”, “doxycycline” for “levofloxacin”, “5).” for “4).”
# (§4) To evaluate the antimicrobial activity of central venous catheters treated with dihydrolipoic acid, segments of 7 French triple lumen polyurethane central venous catheters were impregnated with dihydrolipoic acid using the same patented method described in Example 1 (U.S. Pat. No. 6,589,591) with 25 mg/ml (final solution volume) of the agent. […]
# MSSE = format: cell-based, Staphylococcus epidermidis
# Procedure: as §1, §2, §3
# as §3, with “doxycycline,” for “levofloxacin,”, “doxycycline” for “levofloxacin”, “5).” for “4).”
# as §4
# MRSA = format: cell-based, Staphylococcus aureus
# Procedure: as §1, §2, §3
# as §3, with “doxycycline,” for “levofloxacin,”, “doxycycline” for “levofloxacin”, “5).” for “4).”
# as §4
# Candida albicans = format: cell-based
# Procedure: as §1, §2, §3
# as §3, with “doxycycline,” for “levofloxacin,”, “doxycycline” for “levofloxacin”, “5).” for “4).”
# as §4
# Escherichia coli = format: cell-based
# Procedure: as §1, §2, §3
# as §3, with “doxycycline,” for “levofloxacin,”, “doxycycline” for “levofloxacin”, “5).” for “4).”
# as §4
# Klebsiella pneumoniae II = format: cell-based
# Procedure: as §1, §2, §3
# as §3, with “doxycycline,” for “levofloxacin,”, “doxycycline” for “levofloxacin”, “5).” for “4).”
# as §4
# Klebsiella pneumoniae I = format: cell-based
# Procedure: as §1, §2, §3
# as §3, with “doxycycline,” for “levofloxacin,”, “doxycycline” for “levofloxacin”, “5).” for “4).”
# as §4
# Proteus mirabilis = format: cell-based
# Procedure: as §1, §2, §3
# as §3, with “doxycycline,” for “levofloxacin,”, “doxycycline” for “levofloxacin”, “5).” for “4).”
# as §4
# Pseudomonas aeruginosa = format: cell-based
# Procedure: as §1, §2, §3
# as §3, with “doxycycline,” for “levofloxacin,”, “doxycycline” for “levofloxacin”, “5).” for “4).”
# as §4
# [1] = catheter impregnated with 25 mg/ml of the agent
# [2] = Staphylococcus epidermidis, catheter impregnated with 100 mg/ml of each agent
# [3] = catheter impregnated with 100 mg/ml of each agent
# [4] = Staphylococcus epidermidis, catheter impregnated with 50 mg/ml of each agent, 37° C., 24 hours
# [5] = catheter impregnated with 50 mg/ml of each agent, 37° C., 24 hours
smiles,measurement,setting,value
"O=C(O)CCCCC(S)CCS (stereo not drawn) [Dihydrolipoic acid, 6,8-dimercaptooctanoic acid]",Zones of inhibition,MRSE; [1],21 mm
same,Zones of inhibition,MSSE; [1],25 mm
same,Zones of inhibition,MRSA; [1],24 mm
same,Zones of inhibition,Candida albicans; [1],13 mm
same,Zones of inhibition,Escherichia coli; [1],0 mm
same,Zones of inhibition,"Klebsiella pneumoniae II; Klebsiella pneumoniae II, catheter impregnated with 25 mg/ml of the agent",0 mm
same,Zones of inhibition,Klebsiella pneumoniae I; [1],0 mm
same,Zones of inhibition,Proteus mirabilis; [1],0 mm
same,Zones of inhibition,"Pseudomonas aeruginosa; Pseudomonas aeroginosa, catheter impregnated with 25 mg/ml of the agent",11 mm
"NC(=O)CCCCC1CCSS1 (stereo not drawn) [Lipoamide, lipoamide]",zone of inhibition at 100000 µg/mL,MRSE; [2],16 mm
same,zone of inhibition at 100000 µg/mL,MSSE; [2],24 mm
same,zone of inhibition at 100000 µg/mL,"MRSA; Staphylococcus aureus, catheter impregnated with 100 mg/ml of each agent",10 mm
same,zone of inhibition at 100000 µg/mL,Candida albicans; [3],6 mm
same,zone of inhibition at 100000 µg/mL,Escherichia coli; [3],10 mm
same,zone of inhibition at 100000 µg/mL,"Klebsiella pneumoniae II; Klebsiella pneumoniae II, catheter impregnated with 100 mg/ml of each agent",13 mm
same,zone of inhibition at 100000 µg/mL,Klebsiella pneumoniae I; [3],12 mm
same,zone of inhibition at 100000 µg/mL,Proteus mirabilis; [3],13 mm
same,zone of inhibition at 100000 µg/mL,"Pseudomonas aeruginosa; Pseudomonas aeruginosa, Pseudomonas aeroginosa, catheter impregnated with 100 mg/ml of each agent",18 mm
"O=C(O)CCCCC1CCSS1 (stereo not drawn) [Lipoic acid, 1,2-dithiolane-3-pentanoic acid]",zone of inhibition at 50000 µg/mL,MRSE; [4],22 mm
same,zone of inhibition at 50000 µg/mL,MSSE; [4],32 mm
same,zone of inhibition at 50000 µg/mL,"MRSA; Staphylococcus aureus, catheter impregnated with 50 mg/ml of each agent, 37° C., 24 hours",13 mm
same,zone of inhibition at 50000 µg/mL,Candida albicans; [5],10 mm
same,zone of inhibition at 50000 µg/mL,Escherichia coli; [5],12 mm
same,zone of inhibition at 50000 µg/mL,"Klebsiella pneumoniae II; Klebsiella pneumoniae, Klebsielle pneuminiae II, catheter impregnated with 50 mg/ml of each agent, 37° C., 24 hours",18 mm
same,zone of inhibition at 50000 µg/mL,Klebsiella pneumoniae I; [5],20 mm
same,zone of inhibition at 50000 µg/mL,Proteus mirabilis; [5],12 mm
same,zone of inhibition at 50000 µg/mL,"Pseudomonas aeruginosa; Pseudomonas aeruginosa, catheter impregnated with 50 mg/ml of each agent, 37° C., 24 hours",5 mm
